We go through one molecule from patent publication US20190388389A1, “METHODS AND COMPOSITIONS OF CARNOSOL FOR INHIBITING UVB-INDUCED SKIN DAMAGE” (Ohio University, priority 2017, published 2019).

Assay [1] concerns intracellular ROS level in HaCaT cells. In words: ROS measurement with CM-H2DCFDA after UVB radiation. The class given is cell-based, Human. The following applies: for ROS level post-UVB: UVB 50 mJ/cm^2, 6 h, UVB alone 2.1-fold. As for the experimental part: FIG. 2: Dose dependent effect of carnosol on UVB-induced intracellular ROS level. HaCaT cells were seeded in 96 well plate and incubated with CM-H2DCFDA dye one hour prior to UVB exposure, with or without carnosol treatment. ROS was measured at 6 h post UVB radiation with indicated concentration of carnosol treatment using ex490/em520 nm. The data represents three to five sets of independent experiments. *p<0.05 versus corresponded control group, **p<0.05 versus UV alone.
FIGS. 3A-3B: Time dependent effect of carnosol on UVB-induced intracellular ROS level. HaCaT cells were seeded in 96 well plate and CM-H2DCFDA dye was used to measure intracellular ROS level. Carnosol (20 μM) was added to cells 1 h prior to UVB exposure, and ROS level was measured at 20 min intervals post UVB. (FIG. 3A) Intracellular ROS level at 20 min intervals with or without carnosol treatment. (FIG. 3B) Statistical analysis of intracellular ROS level at 240, 480, 720 min post UVB radiation with or without carnosol (20 μM) treatment. *p<0.05 versus corresponded control group, **p<0.05 versus corresponded UV group.
(§1) UVB was generated from a Bench XX-Series UV Lamp (UVP Inc.) equipped with two 15-watt UVB tubes (UVP Inc.). The intensity of UVB was calibrated by a UVP model UVX digital radiometer (UVP Inc.) after the lamps warmed up for 5 min. For irradiating cells, the dose rate for 8 mJ/cm^2 or 50 mJ/cm^2 of UVB radiation was 0.8 or 3.8 mW/s respectively. Medium was removed before exposing the cells to UVB. After UVB radiation, fresh medium was added to the culture plates with or without drugs, and the cells were continue incubating at 37° C. with 5% CO2 until further analysis. Carnosol was disovled in DMSO and was irradiated with 50 mJ/cm^2 of UVB radiation at a dose rate of 3.8 mW/s before subjecting to cells or structure analysis using Mass Spectrum.
Carnosol (Cayman) (FIG. 1) was added to cells at indicated concentration at 1 h before exposing the cells to UVB radiation. After radiation, cells were continuously incubated with or without carnosol in the medium until further analysis.
CM-H2DCFDA (Invitrogen) was used to measure the total ROS level in cells. CM-H2DCFDA was dissolved in DMSO to a stock solution of 500 μM and diluted in PBS to final concentration of 5 μM. CM-H2DCFDA was added into cells 1 h prior to UVB exposure and the reading of fluorescence dye was recorded every 20 minutes using luminometer (Molecular devices Spectra Max M2).

In a further assay the test system is NF-κB. The assay can be described thus: Western blot for S276 phosphorylation of NF-κB, HaCaT cells. The following applies: 20 μM carnosol, 6 h post UVB. Type of assay: cell-based, Human. The method, then:
FIGS. 7A-7F: Carnosol inhibited UVB-induced NF-κB activation. Cells were exposed to UVB radiation in the presence or absence of carnosol. Cells were lysed at indicated time point and protein levels were measured by western blot analysis. (FIG. 7A) Western blot for IκB protein level in HaCaT cells at 2, 4 h post UVB radiation at 1, 10 or 20 μM carnosol treatment. (FIG. 7B) Western blot analysis for IκB protein level in HaCaT cells at 6 h post UVB radiation in the presence or absence of carnosol. (FIG. 7C) Western blot analysis for IκB protein level in MEF cells at 6 h post UVB radiation in the presence or absence of carnosol. (FIG. 7D) Western blot for 5276 site phosphorylation of NF-κB in HaCaT cells at 6 h post UVB with indicated carnosol concentration. (FIG. 7E) EMSA assay for HaCaT cells at 2, 4, 6 h post UVB radiation in the presence or absence of carnosol (20 μM). (FIG. 7F) Statistical analysis of the EMSA assay using two to three sets of independent experiments. *p<0.05 versus control group, **p<0.05 versus UV group at indicated time point.
Cells were lysed with Nonidet P-40 (NP-40) lysis buffer (2% NP-40, 80 mM NaCl, 100 mM Tris-HCl pH 8.0, 0.1% SDS) with proteinase inhibitor mixture (Complete™, Roche Molecular Biochemicals) at indicated time point. […] Protein concentration was measured by Protein DC Assay kit (Bio-Rad Laboratories). […]

For the next assay, the system named is normal skin cells. The assay can be described thus: Cell viability with carnosol or its UVB-decomposed molecules (FIG. 12). The class given is cell-based. The following applies: within 12 h after treatment. As for the experimental part:
FIG. 12. The effect of carnosol or its decomposed molecules on cell viability. Cell viability assay of carnosol and its UVB-decomposed molecules on normal skin cells in a time dependent manner (6, 12, and 24 h after UVB radiation).
as §1

As for `CC(C)c1cc2c(c(O)c1O)[C@@]13CCCC(C)(C)[C@@H]1C[C@@H]2OC3=O` [carnosol], the “ROS level post-UVB” value in assay [1] (0.1 μM carnosol) is reported as “not statistically significantly changed”; in assay [1] (0.5 μM carnosol), “not statistically significantly changed”; in assay [1] (10 μM carnosol) it was “about 1.5 fold”; in assay [1] (20 μM carnosol) it was roughly 1.3 fold; in assay [1] (30 μM carnosol) it was roughly 1.3 fold. In addition, in assay [1] (20 μM carnosol, 20 min to 10 h post-UVB), the “ROS level in the irradiated cells” value is on record as “continuously reduces”. In addition, the “decrease of ROS level” value in assay [1] (20 μM carnosol, 240 min after UVB) is listed as roughly 30%; in assay [1] (20 μM carnosol, 480 min after UVB) it was roughly 30%; in assay [1] (20 μM carnosol, 720 min after UVB), roughly 30%; in assay [1] (20 μM carnosol, immediately after UVB treatment), 20%. The “ROS level in untreated cells” value in assay [1] (20 μM carnosol, no UVB, 20 min intervals up to 12 h) is on record as “did not statistically significant affect”. In addition, the ROS level result in assay [1] (carnosol alone 0.1 μM to 30 μM, no UVB (Control), 6 h) is recorded as “no statistic significant effect”. In the assay with NF-κB, the “phosphorylation of NF-κB at Serine 276 (S276)” value is reported as “reduces the phosphorylation”. Besides, the “protection of cell damage from UVB radiation (viability)” value in the assay on normal skin cells is “can protect cell damage from UVB radiation in short term”.
